Source: PubChem BioAssay (NCI)
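All cell lines were grown in 96-well plates and treated with compound for 48 hours. GI50 = concentration required for 50% inhibition of growth. TGI denotes the concentration required for complete inhibition of growth.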

What was measured:
Assay in all cases: NCI anticancer screen, dose series, 48 h
[1] = system: SF-295 CNS
[2] = system: OVCAR-3 ovarian
[3] = system: SNB-19 CNS
[4] = system: PC-3 prostate
[5] = system: U251 CNS
[6] = system: SW-620 colon
[7] = system: NCI-H522 lung
[8] = system: SK-MEL-5 melanoma
[9] = system: IGROV1 ovarian
[10] = system: A549 NSCLC
[11] = system: RXF 393 renal
[12] = system: HT29 colon
[13] = system: 786-0 renal
[14] = system: TK-10 renal
[15] = system: CAKI-1 renal
[16] = system: OVCAR-5 ovarian
[17] = system: COLO 205 colon
[18] = system: MCF7 breast
[19] = system: KM12 colon
[20] = system: HOP-62 NSCLC
[21] = system: RPMI-8226 leukemia
[22] = system: HCT-116 colon
[23] = system: NCI-H226 lung
[24] = system: UACC-257 melanoma
[25] = system: NCI/ADR-RES ovarian
[26] = system: MDA-MB-435
[27] = system: ACHN renal
[28] = system: MALME-3M melanoma
[29] = system: HCT-15 colon
[30] = system: BT-549 breast
[31] = system: MOLT-4 leukemia
[32] = system: NCI-H460 lung
[33] = system: HL-60(TB) leukemia
[34] = system: SN12C renal
[35] = system: MDA-MB-468 breast
[36] = system: DU-145 prostate
[37] = system: SK-MEL-28 melanoma
[38] = system: LOX IMVI melanoma
[39] = system: SF-539 CNS
[40] = system: OVCAR-8 ovarian
[41] = system: A498 renal
[42] = system: CCRF-CEM leukemia
[43] = system: EKVX NSCLC
[44] = system: SF-268 CNS
[45] = system: NCI-H23 lung
[46] = system: K-562 leukemia
[47] = system: HS 578T breast
[48] = system: M14 melanoma
[49] = system: HCC-2998 colon
[50] = system: T-47D breast
[51] = system: HOP-92 NSCLC
[52] = system: SK-OV-3 ovarian
[53] = system: OVCAR-4 ovarian
[54] = system: UACC-62 melanoma
[55] = system: SR leukemia
[56] = system: SK-MEL-2 melanoma
[57] = system: SNB-75 CNS
[58] = system: MDA-MB-231 breast
[59] = system: UO-31 renal

Work on `O=C1N/C(=N\c2nccs2)S/C1=C\c1ccc([N+](=O)[O-])cc1` yielded a GI50 [1] of 5.11 µM, a TGI [1] of 40.5 µM and a GI50 [2] of 4.73 µM. It also gave a TGI [2] of 29.4 µM, a GI50 [3] of 3.58 µM and a TGI [3] of 70.6 µM. The GI50 [4] was 5.98 µM, the TGI [4] was over 100 µM and the GI50 [5] was 4.6 µM. It also gave a TGI [5] of over 100 µM, a GI50 [6] of 4.77 µM and a TGI [6] of over 100 µM. For the same compound, the GI50 [7] was 7.47 µM, the TGI [7] was 33.9 µM and the GI50 [8] was 7.45 µM. The TGI [8] was 20.2 µM, the GI50 [9] was 6.89 µM and the TGI [9] was 30.8 µM. For the same compound, the GI50 [10] was 4.89 µM, the TGI [10] was over 100 µM and the GI50 [11] was 12.4 µM. The TGI [11] was 46.3 µM, the GI50 [12] was 18.5 µM and the TGI [12] was over 100 µM. The GI50 [13] was 6.17 µM, the TGI [13] was 72.9 µM and the GI50 [14] was 12.8 µM. It also gave a TGI [14] of 59.3 µM, a GI50 [15] of 12.7 µM and a TGI [15] of 82.8 µM. It also gave a GI50 [16] of 16.1 µM, a TGI [16] of 95.6 µM and a GI50 [17] of 7.7 µM. The TGI [17] was 23.9 µM, the GI50 [18] was 4.44 µM and the TGI [18] was 20.4 µM. It also gave a GI50 [19] of 5.91 µM, a TGI [19] of 32.4 µM and a GI50 [20] of 6.77 µM. It also gave a TGI [20] of 60.7 µM, a GI50 [21] of 3.56 µM and a TGI [21] of 31.6 µM. The GI50 [22] was 4.44 µM, the TGI [22] was 19 µM and the GI50 [23] was 12.5 µM. The TGI [23] was 68.2 µM, the GI50 [24] was 12.4 µM and the TGI [24] was 32.5 µM. The GI50 [25] was 5.03 µM, the TGI [25] was 37.3 µM and the GI50 [26] was 12 µM. For the same compound, the TGI [26] was over 100 µM, the GI50 [27] was 5.49 µM and the TGI [27] was 35.2 µM. The GI50 [28] was 11.2 µM, the TGI [28] was 27.2 µM and the GI50 [29] was 4.29 µM. It also gave a TGI [29] of over 100 µM, a GI50 [30] of 6.87 µM and a TGI [30] of 41.4 µM. It also gave a GI50 [31] of 2.54 µM, a TGI [31] of 7.5 µM and a GI50 [32] of 4.12 µM. It also gave a TGI [32] of 19.7 µM, a GI50 [33] of 3.62 µM and a TGI [33] of 24.5 µM. It also gave a GI50 [34] of 5.47 µM, a TGI [34] of 63.5 µM and a GI50 [35] of 4.62 µM. For the same compound, the TGI [35] was 25.8 µM, the GI50 [36] was 11.9 µM and the TGI [36] was over 100 µM. It also gave a GI50 [37] of 14 µM, a TGI [37] of over 100 µM and a GI50 [38] of 4.75 µM. For the same compound, the TGI [38] was 34.2 µM, the GI50 [39] was 5.62 µM and the TGI [39] was 26.9 µM. It also gave a GI50 [40] of 6.43 µM, a TGI [40] of 68.9 µM and a GI50 [41] of 14.5 µM. The TGI [41] was 39.8 µM, the GI50 [42] was 3.84 µM and the TGI [42] was 32.5 µM. For the same compound, the GI50 [43] was 4.71 µM, the TGI [43] was 27.8 µM and the GI50 [44] was 10.1 µM. For the same compound, the TGI [44] was over 100 µM, the GI50 [45] was 6.8 µM and the TGI [45] was 70 µM. For the same compound, the GI50 [46] was 4.24 µM, the TGI [46] was over 100 µM and the GI50 [47] was 11.6 µM. The TGI [47] was 81.6 µM, the GI50 [48] was 9.86 µM and the TGI [48] was 39.6 µM. It also gave a GI50 [49] of 6.93 µM, a TGI [49] of 30.4 µM and a GI50 [50] of 5.05 µM. It also gave a TGI [50] of 53.1 µM, a GI50 [51] of 4.46 µM and a TGI [51] of 38.3 µM. The GI50 [52] was 15.7 µM, the TGI [52] was 63.9 µM and the GI50 [53] was 7.01 µM. For the same compound, the TGI [53] was 67.5 µM, the GI50 [54] was 5.08 µM and the TGI [54] was 23.1 µM. For the same compound, the GI50 [55] was 3.41 µM and the TGI [55] was 18 µM.

`COc1ccc2c(c1)c(-c1cc(N)n3nc(-c4cn(C)c5ccccc45)cc3n1)cn2C` was tested, and the GI50 [1] was 1.78 µM, the TGI [1] was 3.43 µM and the GI50 [2] was 1.94 µM. For the same compound, the TGI [2] was 3.68 µM, the GI50 [3] was 2.18 µM and the TGI [3] was 5 µM. The GI50 [4] was 1.8 µM, the TGI [4] was 3.69 µM and the GI50 [5] was 1.84 µM. For the same compound, the TGI [5] was 3.44 µM, the GI50 [6] was 1.8 µM and the TGI [6] was 3.6 µM. It also gave a GI50 [7] of 1.65 µM, a TGI [7] of 3.15 µM and a GI50 [8] of 1.81 µM. For the same compound, the TGI [8] was 3.23 µM, the GI50 [9] was 1.73 µM and the TGI [9] was 3.25 µM. It also gave a GI50 [10] of 1.81 µM, a TGI [10] of 3.51 µM and a GI50 [11] of 1.85 µM. It also gave a TGI [11] of 3.41 µM, a GI50 [12] of 1.86 µM and a TGI [12] of 3.38 µM. It also gave a GI50 [56] of 1.7 µM, a TGI [56] of 3.23 µM and a GI50 [13] of 1.55 µM. The TGI [13] was 2.97 µM, the GI50 [14] was 1.91 µM and the TGI [14] was 3.36 µM. The GI50 [15] was 1.71 µM, the TGI [15] was 3.14 µM and the GI50 [16] was 1.95 µM. The TGI [16] was 3.85 µM, the GI50 [17] was 1.92 µM and the TGI [17] was 3.67 µM. For the same compound, the GI50 [18] was 0.934 µM, the TGI [18] was 2.52 µM and the GI50 [19] was 2.1 µM. It also gave a TGI [19] of 4.48 µM, a GI50 [20] of 1.73 µM and a TGI [20] of 3.35 µM. It also gave a GI50 [57] of 1.43 µM, a TGI [57] of 2.8 µM and a GI50 [21] of 2.08 µM. The TGI [21] was 6.07 µM, the GI50 [22] was 1.16 µM and the TGI [22] was 2.42 µM. It also gave a GI50 [23] of 2.04 µM, a TGI [23] of 4.93 µM and a GI50 [24] of 1.77 µM. The TGI [24] was 3.26 µM, the GI50 [25] was 2.03 µM and the TGI [25] was 4.18 µM. It also gave a GI50 [26] of 1.76 µM, a TGI [26] of 3.21 µM and a GI50 [27] of 1.65 µM. It also gave a TGI [27] of 3.02 µM, a GI50 [28] of 1.7 µM and a TGI [28] of 3.09 µM. The GI50 [29] was 1.04 µM, the TGI [29] was 2.68 µM and the GI50 [30] was 1.87 µM. The TGI [30] was 3.57 µM, the GI50 [31] was 1.69 µM and the TGI [31] was 5.41 µM. The GI50 [32] was 1.9 µM, the TGI [32] was 3.6 µM and the GI50 [33] was 1.4 µM. The TGI [33] was 3.94 µM, the GI50 [34] was 1.66 µM and the TGI [34] was 3.05 µM. The GI50 [35] was 1.67 µM, the TGI [35] was 3.31 µM and the GI50 [36] was 2.05 µM. The TGI [36] was 4.01 µM, the GI50 [37] was 1.8 µM and the TGI [37] was 3.32 µM. The GI50 [39] was 1.7 µM, the TGI [39] was 3.19 µM and the GI50 [40] was 1.88 µM. For the same compound, the TGI [40] was 3.53 µM, the GI50 [41] was 1.76 µM and the TGI [41] was 3.27 µM. The GI50 [42] was 0.864 µM, the TGI [42] was 5.38 µM and the GI50 [43] was 1.46 µM. The TGI [43] was 3.3 µM, the GI50 [44] was 1.97 µM and the TGI [44] was 4.08 µM. It also gave a GI50 [45] of 1.97 µM, a TGI [45] of 4.09 µM and a GI50 [46] of 0.401 µM. It also gave a TGI [46] of 4.5 µM, a GI50 [47] of 2.18 µM and a TGI [47] of 4.77 µM. For the same compound, the GI50 [48] was 1.85 µM, the TGI [48] was 3.59 µM and the GI50 [49] was 2.09 µM. The TGI [49] was 3.65 µM, the GI50 [58] was 1.82 µM and the TGI [58] was 3.27 µM. For the same compound, the GI50 [50] was 1.94 µM, the TGI [50] was 4.15 µM and the GI50 [51] was 1.76 µM. It also gave a TGI [51] of 3.41 µM, a GI50 [59] of 1.59 µM and a TGI [59] of 2.98 µM. It also gave a GI50 [52] of 1.92 µM, a TGI [52] of 3.51 µM and a GI50 [53] of 1.82 µM. The TGI [53] was 3.28 µM, the GI50 [54] was 1.73 µM and the TGI [54] was 3.14 µM. It also gave a GI50 [55] of 0.288 µM and a TGI [55] of 1.13 µM.
